Assay [1] concerns the target T1, Full length human recombinant HDAC6 (Homo sapiens, UniProt Q9UBN7).
T1 construct: Full length human recombinant HDAC6 and HDAC11 proteins were expressed in baculoviral system
T1 sequence (Q9UBN7 1-1215): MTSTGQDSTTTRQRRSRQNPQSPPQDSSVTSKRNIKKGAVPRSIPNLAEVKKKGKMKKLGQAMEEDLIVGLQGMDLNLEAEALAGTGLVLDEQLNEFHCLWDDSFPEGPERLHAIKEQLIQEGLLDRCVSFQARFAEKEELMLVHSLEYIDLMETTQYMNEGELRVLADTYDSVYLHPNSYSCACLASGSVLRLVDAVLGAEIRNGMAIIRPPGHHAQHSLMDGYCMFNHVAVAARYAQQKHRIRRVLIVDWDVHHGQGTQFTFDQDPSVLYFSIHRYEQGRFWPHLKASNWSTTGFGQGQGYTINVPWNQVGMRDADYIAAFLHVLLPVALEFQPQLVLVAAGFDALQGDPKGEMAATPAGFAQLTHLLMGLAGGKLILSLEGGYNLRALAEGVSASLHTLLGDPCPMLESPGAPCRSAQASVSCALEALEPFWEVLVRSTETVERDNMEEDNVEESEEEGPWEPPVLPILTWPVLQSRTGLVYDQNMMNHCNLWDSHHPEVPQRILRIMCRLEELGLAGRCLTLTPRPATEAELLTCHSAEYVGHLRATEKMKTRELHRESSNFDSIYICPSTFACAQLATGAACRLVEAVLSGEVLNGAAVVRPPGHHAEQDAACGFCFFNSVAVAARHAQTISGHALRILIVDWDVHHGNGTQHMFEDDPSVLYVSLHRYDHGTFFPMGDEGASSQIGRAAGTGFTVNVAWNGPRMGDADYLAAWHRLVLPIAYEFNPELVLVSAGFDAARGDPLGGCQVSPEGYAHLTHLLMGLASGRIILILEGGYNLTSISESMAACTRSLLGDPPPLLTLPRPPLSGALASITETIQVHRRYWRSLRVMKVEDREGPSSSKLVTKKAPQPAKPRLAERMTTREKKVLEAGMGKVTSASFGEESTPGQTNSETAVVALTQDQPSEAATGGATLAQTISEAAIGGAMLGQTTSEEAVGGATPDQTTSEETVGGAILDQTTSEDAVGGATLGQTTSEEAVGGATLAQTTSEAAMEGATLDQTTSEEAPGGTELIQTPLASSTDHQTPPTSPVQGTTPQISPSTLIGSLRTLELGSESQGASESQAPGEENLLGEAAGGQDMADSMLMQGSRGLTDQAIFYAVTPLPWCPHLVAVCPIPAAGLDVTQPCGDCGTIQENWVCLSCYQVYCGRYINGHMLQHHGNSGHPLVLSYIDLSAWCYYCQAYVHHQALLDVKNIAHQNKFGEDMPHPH
Put plainly: In vitro histone deacetylase assay, enzymatic HDAC6 (electrophoretic mobility shift assay). Type of assay: biochemical. The conditions noted are these: 1 nM HDAC6; 2 μM peptide substrate FAM-RHKK(Ac)—NH2; 25° C.; 12 concentrations; read-out: HDAC6 Activity Range (IC50). In outline: (§1)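 Baculovirus-expressed full-length enzymes (HDAC6 1 nM, FAM-RHKK(Ac)-NH2; HDAC11 10 nM, FAM-RHKK(tri-fluor-Ac)-NH2), 2 μM substrate, HEPES pH 7.5, 25°C, 12-point 3× dilutions. Product/substrate separated by microfluidic mobility shift after SDS quench; IC50 from 4-parameter fit, reported as +/++/+++ bins.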

The target in assay [2] is T2, Full length human recombinant HDAC11 (Homo sapiens, UniProt Q96DB2).
T2 construct: Full length human recombinant HDAC6 and HDAC11 proteins were expressed in baculoviral system
T2 sequence (Q96DB2 1-347): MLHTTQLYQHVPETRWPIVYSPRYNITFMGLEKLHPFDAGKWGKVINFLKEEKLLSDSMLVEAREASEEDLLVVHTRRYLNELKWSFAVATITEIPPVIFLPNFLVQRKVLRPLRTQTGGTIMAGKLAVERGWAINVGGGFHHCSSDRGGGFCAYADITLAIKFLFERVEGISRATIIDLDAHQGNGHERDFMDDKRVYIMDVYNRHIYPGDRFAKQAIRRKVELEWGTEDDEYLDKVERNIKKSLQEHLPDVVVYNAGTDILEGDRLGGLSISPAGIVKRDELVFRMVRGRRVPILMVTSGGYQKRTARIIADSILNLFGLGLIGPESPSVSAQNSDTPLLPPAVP
Put plainly: In vitro histone deacetylase assay, enzymatic HDAC11 (electrophoretic mobility shift assay). Type of assay: biochemical. The conditions noted are these: 10 nM HDAC11; 2 μM peptide substrate FAM-RHKK(tri-fluor-Ac)—NH2; 25° C.; 12 concentrations; read-out: HDAC11 Activity Range (IC50). In outline:
as §1

Where only a bound is given, the exact number is not on record here.

On to `CN1CCC2(CCc3ccc(C(=O)NO)cc3C2)C1` (centres unmarked) [Compound I-9, N-hydroxy-1′-methyl-3,4-dihydro-1H-spiro[naphthalene-2,3′-pyrrolidine]-7-carboxamide], for which the half-maximal inhibitory concentration (IC50) in assay [1] was 100 to 500 nM; in assay [2], more than 500 nM.
The corresponding values for `O=C(NO)c1ccc2c(c1)C[C@@]1(CC2)CCN(Cc2cccc(Cl)c2)C1=O` [Compound I-74, (S)-1′-(3-chlorobenzyl)-N-hydroxy-2′-oxo-3,4-dihydro-1H-spiro[naphthalene-2,3′-pyrrolidine]-7-carboxamide] are not above 100 nM and more than 500 nM.
In the case of `O=C(NO)c1ccc2c(c1)C[C@@]1(CC2)CCN(c2ccc3c(c2)OCO3)C1=O` [Compound I-115, (S)-1′-(benzo[d][1,3]dioxol-5-yl)-N-hydroxy-2′-oxo-3,4-dihydro-1H-spiro[naphthalene-2,3′-pyrrolidine]-7-carboxamide], the IC50 is not above 100 nM in assay [1] and more than 500 nM in assay [2].
On the same counts, the results for `COc1cccc(CN2CC[C@]3(CCc4ccc(C(=O)NO)cc4C3)C2=O)c1` [Compound I-96, (R)—N-hydroxy-1′-(3-methoxybenzyl)-2′-oxo-3,4-dihydro-1H-spiro[naphthalene-2,3′-pyrrolidine]-7-carboxamide] are not above 100 nM and 100 to 500 nM.
In the case of `O=C(NO)c1ccc2c(c1)C[C@]1(CC2)CCN(Cc2ccccc2C(F)(F)F)C1=O` [Compound I-88, (R)—N-hydroxy-2′-oxo-1′-(2-(trifluoromethyl)benzyl)-3,4-dihydro-1H-spiro[naphthalene-2,3′-pyrrolidine]-7-carboxamide], the IC50 in assay [1] and in assay [2] was not above 100 nM each time.
For the compound `O=C(NO)c1ccc2c(c1)C[C@]1(CC2)CCN(Cc2ccc(F)cc2)C1=O` [Compound I-42, (R)-1′-(4-fluorobenzyl)-N-hydroxy-2′-oxo-3,4-dihydro-1H-spiro[naphthalene-2,3′-pyrrolidine]-7-carboxamide], the 50% inhibitory concentration (IC50) in assay [1] and in assay [2] was not above 100 nM each time.
Turning to `O=C(NO)c1ccc2c(c1)C[C@@]1(CC2)CCN(c2ccccn2)C1=O` [Compound I-44, (S)—N-hydroxy-2′-oxo-1′-(pyridin-2-yl)-3,4-dihydro-1H-spiro[naphthalene-2,3′-pyrrolidine]-7-carboxamide], the half-maximal inhibitory concentration (IC50) in assay [1] is not above 100 nM; in assay [2] it was more than 500 nM.
On the same counts, the results for `CC(C)CN1C[C@]2(CCc3ccc(C(=O)NO)cc3C2)CC1=O` [Compound I-138, (S)—N-hydroxy-1′-isobutyl-5′-oxo-3,4-dihydro-1H-spiro[naphthalene-2,3′-pyrrolidine]-7-carboxamide] are not above 100 nM and more than 500 nM.
Consider `CCN1C[C@]2(CCc3ccc(C(=O)NO)cc3C2)CC1=O` [Compound I-143, (S)-1′-ethyl-N-hydroxy-5′-oxo-3,4-dihydro-1H-spiro[naphthalene-2,3′-pyrrolidine]-7-carboxamide], for which the figures for the IC50 in assay [1] and in assay [2] were not above 100 nM and more than 500 nM, respectively.
In the case of `O=C(NO)c1ccc2c(c1)C[C@]1(CC2)CCN(CC2CCOCC2)C1=O` [Compound I-85, (R)—N-hydroxy-2′-oxo-1′-((tetrahydro-2H-pyran-4-yl)methyl)-3,4-dihydro-1H-spiro[naphthalene-2,3′-pyrrolidine]-7-carboxamide], the half-maximal inhibitory concentration (IC50) in assay [1] is not above 100 nM; in assay [2] it was more than 500 nM.
The corresponding values for `CCCN1CC[C@]2(CCc3ccc(C(=O)NO)cc3C2)C1=O` [Compound I-79, (R)—N-hydroxy-2′-oxo-1′-propyl-3,4-dihydro-1H-spiro[naphthalene-2,3′-pyrrolidine]-7-carboxamide] are not above 100 nM and more than 500 nM.
On to `O=C(NO)c1ccc2c(c1)C[C@]1(CC2)CC(=O)N(CC2COC2)C1` [Compound I-146, (R)—N-hydroxy-1′-(oxetan-3-ylmethyl)-5′-oxo-3,4-dihydro-H-spiro[naphthalene-2,3′-pyrrolidine]-7-carboxamide], for which the IC50 is not above 100 nM in assay [1] and more than 500 nM in assay [2].
With `O=C(NO)c1ccc2c(c1)C[C@]1(CC2)CCN(CC2CCC2)C1=O` [Compound I-81, (R)-1′-(cyclobutylmethyl)-N-hydroxy-2′-oxo-3,4-dihydro-1H-spiro[naphthalene-2,3′-pyrrolidine]-7-carboxamide], the IC50 in assay [1] is not above 100 nM; in assay [2], more than 500 nM.
The corresponding values for `O=C(NO)c1ccc2c(c1)C[C@]1(CC2)CCN(Cc2ccc(Cl)cn2)C1=O` [Compound I-40, (R)-1′-((5-chloropyridin-2-yl)methyl)-N-hydroxy-2′-oxo-3,4-dihydro-1H-spiro[naphthalene-2,3′-pyrrolidine]-7-carboxamide] are not above 100 nM and not above 100 nM.
On the same counts, the results for `CC(C)CCN1CC[C@@]2(CCc3ccc(C(=O)NO)cc3C2)C1=O` [Compound I-54, (S)—N-hydroxy-1′-isopentyl-2′-oxo-3,4-dihydro-1H-spiro[naphthalene-2,3′-pyrrolidine]-7-carboxamide] are not above 100 nM and more than 500 nM.
The corresponding values for `CC(C)N1C[C@@]2(CCc3ccc(C(=O)NO)cc3C2)CC1=O` [Compound I-139, (R)—N-hydroxy-1′-isopropyl-5′-oxo-3,4-dihydro-1H-spiro[naphthalene-2,3′-pyrrolidine]-7-carboxamide] are not above 100 nM and more than 500 nM.
Regarding `O=C(NO)c1ccc2c(c1)C[C@@]1(CC2)CCN(Cc2ccc(C(F)(F)F)cc2)C1=O` [Compound I-126, (S)—N-hydroxy-2′-oxo-1′-(4-(trifluoromethyl)benzyl)-3,4-dihydro-1H-spiro[naphthalene-2,3′-pyrrolidine]-7-carboxamide], the concentration for half-maximal inhibition (IC50) in assay [1] and in assay [2] was not above 100 nM throughout.
Turning to `O=C(NO)c1ccc2c(c1)C[C@]1(CC2)CC(=O)N(CC(F)(F)F)C1` [Compound I-149, (R)—N-hydroxy-5′-oxo-1′-(2,2,2-trifluoroethyl)-3,4-dihydro-1H-spiro[naphthalene-2,3′-pyrrolidine]-7-carboxamide], the half-inhibitory concentration (IC50) was not above 100 nM in assay [1] and more than 500 nM in assay [2].
`O=C(NO)c1ccc2c(c1)C[C@@]1(CC2)CC(=O)N(c2ccccc2)C1` [Compound I-132, (S)—N-hydroxy-5′-oxo-1′-phenyl-3,4-dihydro-1H-spiro[naphthalene-2,3′-pyrrolidine]-7-carboxamide]: the half-maximal inhibitory concentration (IC50) was not above 100 nM in assay [1] and more than 500 nM in assay [2].
On the same counts, the results for `O=C(NO)c1ccc2c(c1)OC1(CC2)CCN(C2CCCCC2)CC1` [II-6, 1′-cyclohexyl-N-hydroxyspiro[chroman-2,4′-piperidine]-7-carboxamide] are 100 to 500 nM and not above 100 nM.
Consider `O=C(NO)c1ccc2c(c1)CC1(CC2)CCN(Cc2ccc(Cl)c(Cl)c2)C1=O` (centres unmarked) [Compound I-21, 1′-(3,4-dichlorobenzyl)-N-hydroxy-2′-oxo-3,4-dihydro-1H-spiro[naphthalene-2,3′-pyrrolidine]-7-carboxamide], for which the IC50 in assay [1] and in assay [2] was not above 100 nM throughout.
With `CN(C)CCCN1CCC2(CCc3ccc(C(=O)NO)cc3C2)C1=O` (centres unmarked) [Compound I-25, 1′-(3-(dimethylamino)propyl)-N-hydroxy-2′-oxo-3,4-dihydro-1H-spiro[naphthalene-2,3′-pyrrolidine]-7-carboxamide], the IC50 in assay [1] is not above 100 nM; in assay [2], more than 500 nM.
